PubChem BioAssay (NCI)
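Protocol summary: plate cells (96-well), add compound at 5 concentrations, incubate 48 h, interpolate endpoints linearly. The concentration for full growth arrest is given as TGI.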 Where a SMILES comes first, the peptide text is derived from it. [ ]: non-standard residue; d: D form. The star is where a group is joined. Cbz = O=C(OCc1ccccc1)*; Boc = CC(C)(C)OC(=O)*; Aib = CC(C)(N)C(=O)O; OBn = c1ccc(CO*)cc1; OtBu = CC(C)(C)O*; βAla = NCCC(=O)O

Experiments:
Experiment in all cases: NCI anticancer screen, dose series, 48 h
[1] = tested on: SF-295 CNS
[2] = tested on: LOX IMVI melanoma
[3] = tested on: 786-0 renal
[4] = tested on: HT29 colon
[5] = tested on: OVCAR-4 ovarian
[6] = tested on: COLO 205 colon
[7] = tested on: CAKI-1 renal
[8] = tested on: MDA-MB-231 breast
[9] = tested on: UO-31 renal
[10] = tested on: SNB-75 CNS

Row | Structure (SMILES) | TGI [1] [µM] | TGI [2] [µM] | TGI [3] [µM] | TGI [4] [µM] | TGI [5] [µM] | TGI [6] [µM] | TGI [7] [µM] | TGI [8] [µM] | TGI [9] [µM] | TGI [10] [µM]
1 | O=C1OS2(OCc3cccc4cccc2c34)c2ccccc21 (stereo not given) | > 100 | > 100 | > 100 | > 100 | > 100 | > 100 | > 100 | > 100 | > 100 | > 100
2 | O=C(O)c1ccccc1/C=N\NC1=NCCCCN1 | > 100 | > 100 | > 100 | > 100 | > 100 | > 100 | > 100 | > 100 | > 100 | > 100
3 | O=C1C=CC(=O)c2ncccc21 | 23.1 | 6.32 | 7.61 | 16.7 | 11.4 | 7.64 | 4.02 | 8.06 | 9.03 | 17.2
4 | CC1(C)[C@@H]2C[C@H]1c1cnc(-c3ccccn3)cc1C2[C@@H]1c2cc(-c3ccccn3)ncc2[C@@H]2C[C@H]1C2(C)C (stereo not given in full) | > 100 | > 100 | > 100 | > 100 | 85.3 | > 100 | > 100 | > 100 | 85.9 | > 100
5 | CSc1ncc2c(n1)-c1ccccc1OC2N1CCCC1 (stereo not given) | > 100 | > 100 | > 100 | > 100 | > 100 | > 100 | 83.4 | > 100 | > 100 | > 100
6 | CCCCSc1n/c(=C\c2ccc(N(C)C)cc2)c2nnnn12 | > 100 | > 100 | > 100 | > 100 | > 100 | > 100 | > 100 | > 100 | > 100 | > 100
7 | CC1(C)C2CC(c3ccncc3)ON2C(C)(C)N1O (stereo not given) | > 100 | > 100 | > 100 | > 100 | > 100 | > 100 | > 100 | > 100 | > 100 | > 100
8 | CCOC(=O)c1cn(-c2ccc(Cl)cc2)c(=O)n2c1nc1ccccc12 | > 100 | > 100 | > 100 | > 100 | > 100 | > 100 | > 100 | > 100 | > 100 | > 100
9 | O=C1NC(N/N=C\c2ccccc2)=N/C1=C/c1ccc(Cl)cc1 | 78.8 | 67.9 | > 100 | > 100 | 31.4 | > 100 | > 100 | > 100 | 36.2 | 42.2
10 | CC(C)(C)OC(=O)CC(NC(=O)OC(C)(C)C)C(=O)NC(CCCCNC(=O)OCc1ccccc1)C(=O)NC(C)(C)C(=O)NCCC(=O)OCc1ccccc1 (stereo not given) (Boc-D(OtBu)K(Cbz)[Aib][βAla]-OBn; configuration not given here) | > 100 | > 100 | > 100 | > 100 | > 100 | > 100 | > 100 | > 100 | > 100 | > 100
11 | CCN(CC)CCCNc1ccc2nnn3c4ccc(O)cc4c(=O)c1c23 | 22.8 | 13.1 | 19.6 | 14.1 | 19.3 | 19.5 | 17 | 20.9 | 6.27 | 20.2
12 | Cc1ccc2c(c1)OC1Nc3ccccc3C1=C2O (stereo not given) | 60 | 71.5 | 66 | > 100 | > 100 | 29.2 | 97.5 | 69.4 | 61.6 | > 100
13 | CCCCN(c1ccccc1)c1ncnc2c1cnn2C | > 100 | > 100 | > 100 | > 100 | > 100 | > 100 | > 100 | > 100 | > 100 | 55.9
14 | C/C=C/[C@H]1O[C@@](OC)([C@@H](C)[C@H](O)[C@H](C)[C@H]2OC(=O)/C(OC)=C/C(C)=C/[C@@H](C)[C@@H](O)[C@@H](C)[C@@H](O)[C@H](C)C/C(C)=C/C=C/[C@@H]2OC)CC(OC2CC(O)C(OC(N)=O)C(C)O2)[C@@H]1C (stereo not given in full) | < 0.01 | < 0.01 | 10.4 | 1.17 | 18.3 | 1.8 | 11.7 | 12.7 | < 0.01 | 19.5
